Data published in ChEMBL document CHEMBL4680155, “One-pot synthesis and molecular docking of some new spiropyranindol-2-one derivatives as immunomodulatory agents and in vitro antimicrobial potential with DNA gyrase inhibitor” (Eur J Med Chem, 2020).
≈ marks a conversion by molar mass, not a printed value.

Columns and labels:
[1] = test system: Enterococcus faecalis; test: Antibacterial activity against Enterococcus faecalis ATCC 29212 assessed as diameter of inhibition zone at 0.5 mg/ml incubated for 24 hrs by agar diffusion method; type: functional; conditions: read-out: DIZ
[2] = test system: Staphylococcus aureus; test: Antibacterial activity against Staphylococcus aureus ATCC 29213 assessed as diameter of inhibition zone at 0.5 mg/ml incubated for 24 hrs by agar diffusion method; type: functional; conditions: read-out: DIZ
[3] = test system: Escherichia coli; test: Antibacterial activity against Escherichia coli ATCC 25922 assessed as diameter of inhibition zone at 0.5 mg/ml incubated for 24 hrs by agar diffusion method; type: functional; conditions: read-out: DIZ
[4] = test system: Salmonella typhimurium; test: Antibacterial activity against Salmonella typhi ATCC 6539 assessed as diameter of inhibition zone at 0.5 mg/ml incubated for 24 hrs by agar diffusion method; type: functional, Salmonella enterica subsp. enterica serovar Typhimurium; conditions: Salmonella enterica, read-out: DIZ
[5] = test system: Candida albicans; test: Antifungal activity against Candida albicans ATCC 10231 assessed as diameter of inhibition zone at 0.5 mg/ml incubated for 24 hrs by agar diffusion method; type: functional; conditions: read-out: DIZ
[6] = test system: Aspergillus brasiliensis; test: Antifungal activity against Aspergillus brasiliensis ATCC 16404 assessed as diameter of inhibition zone at 0.5 mg/ml incubated for 72 hrs by agar diffusion method; type: functional; conditions: read-out: DIZ
[7] = test system: Enterococcus faecalis; test: Antibacterial activity against Enterococcus faecalis ATCC 29212 assessed as reduction in bacterial growth incubated for 1 day by paper disk diffusion method; type: functional; conditions: ATCC 29212, 24 h
[8] = test system: Staphylococcus aureus; test: Antibacterial activity against Staphylococcus aureus ATCC 29213 assessed as reduction in bacterial growth incubated for 1 day by paper disk diffusion method; type: functional; conditions: ATCC 29213, 24 h
[9] = test system: Escherichia coli; test: Antibacterial activity against Escherichia coli ATCC 25922 assessed as reduction in bacterial growth incubated for 1 day by paper disk diffusion method; type: functional; conditions: ATCC 25922, 24 h
[10] = test system: Salmonella typhimurium; test: Antibacterial activity against Salmonella typhi ATCC 6539 assessed as reduction in bacterial growth incubated for 1 day by paper disk diffusion method; type: functional, Salmonella enterica subsp. enterica serovar Typhimurium; conditions: Salmonella enterica, ATCC 6539, 24 h
[11] = test system: Candida albicans; test: Antifungal activity against Candida albicans ATCC 10231 assessed as reduction in bacterial growth incubated for 1 day by paper disk diffusion method; type: functional; conditions: ATCC 10231, 24 h
[12] = test system: Aspergillus brasiliensis; test: Antifungal activity against Aspergillus brasiliensis ATCC 16404 assessed as reduction in bacterial growth incubated for 3 days by paper disk diffusion method; type: functional; conditions: ATCC 16404, 72 h, time 3 day
[13] = test system: Enterococcus faecalis; test: Bactericidal activity against Enterococcus faecalis ATCC 29212 incubated for 24 hrs followed by transferring to freshly prepared broth medium and measured after 24 hrs by broth microdilution assay; type: functional; conditions: time 48 hrs
[14] = test system: Staphylococcus aureus; test: Bactericidal activity against Staphylococcus aureus ATCC 29213 incubated for 24 hrs followed by transferring to freshly prepared broth medium and measured after 24 hrs by broth microdilution assay; type: functional; conditions: time 48 hrs
[15] = test system: Escherichia coli; test: Bactericidal activity against Escherichia coli ATCC 25922 incubated for 24 hrs followed by transferring to freshly prepared broth medium and measured after 24 hrs by broth microdilution assay; type: functional; conditions: time 48 hrs
[16] = test system: Salmonella typhimurium; test: Bactericidal activity against Salmonella typhi ATCC 6539 incubated for 24 hrs followed by transferring to freshly prepared broth medium and measured after 24 hrs by broth microdilution assay; type: functional, Salmonella enterica subsp. enterica serovar […]; conditions: Salmonella enterica, time 48 hrs
[17] = test system: Candida albicans; test: Fungicidal activity against Candida albicans ATCC 10231 incubated for 24 hrs followed by transferring to freshly prepared broth medium and measured after 24 hrs by broth microdilution assay; type: functional; conditions: time 48 hrs
[18] = test system: Aspergillus brasiliensis; test: Fungicidal activity against Aspergillus brasiliensis ATCC 16404 incubated for 72 hrs followed by transferring to freshly prepared broth medium and measured after 24 hrs by broth microdilution assay; type: functional; conditions: time 96 hrs
[19] = test system: Staphylococcus aureus; test: Antibacterial activity against multidrug resistant Staphylococcus aureus ATCC 43300 assessed as diameter of inhibition zone at 0.5 mg/ml incubated for 24 hrs by agar diffusion method; type: functional; conditions: read-out: DIZ
[20] = test system: Staphylococcus aureus; test: Antibacterial activity against multidrug resistant Staphylococcus aureus ATCC 33591 assessed as diameter of inhibition zone at 0.5 mg/ml incubated for 24 hrs by agar diffusion method; type: functional; conditions: read-out: DIZ
[21] = test system: Escherichia coli; test: Antibacterial activity against multidrug resistant Escherichia coli ATCC BAA-196 assessed as diameter of inhibition zone at 0.5 mg/ml incubated for 24 hrs by agar diffusion method; type: functional; conditions: read-out: DIZ
[22] = test system: Pseudomonas aeruginosa; test: Antibacterial activity against multidrug resistant Pseudomonas aeruginosa ATCC BAA-2111 assessed as diameter of inhibition zone at 0.5 mg/ml incubated for 24 hrs by agar diffusion method; type: functional; conditions: read-out: DIZ
[23] = test system: Staphylococcus aureus; test: Antibacterial activity against multidrug resistant Staphylococcus aureus ATCC 43300 assessed as reduction in bacterial growth incubated for 1 day by paper disk diffusion method; type: functional; conditions: ATCC 43300, 24 h
[24] = test system: Staphylococcus aureus; test: Antibacterial activity against multidrug resistant Staphylococcus aureus ATCC 33591 assessed as reduction in bacterial growth incubated for 1 day by paper disk diffusion method; type: functional; conditions: ATCC 33591, 24 h
[25] = test system: Escherichia coli; test: Antibacterial activity against multidrug resistant Escherichia coli ATCC BAA-196 assessed as reduction in bacterial growth incubated for 1 day by paper disk diffusion method; type: functional; conditions: ATCC BAA-196, 24 h
[26] = test system: Pseudomonas aeruginosa; test: Antibacterial activity against multidrug resistant Pseudomonas aeruginosa ATCC BAA-2111 assessed as reduction in bacterial growth incubated for 1 day by paper disk diffusion method; type: functional; conditions: ATCC BAA-2111, 24 h
[27] = test system: Staphylococcus aureus; test: Bactericidal activity against Staphylococcus aureus ATCC 43300 incubated for 24 hrs followed by transferring to freshly prepared broth medium and measured after 24 hrs by broth microdilution assay; type: functional; conditions: time 48 hrs
[28] = test system: Staphylococcus aureus; test: Bactericidal activity against Staphylococcus aureus ATCC 33591 incubated for 24 hrs followed by transferring to freshly prepared broth medium and measured after 24 hrs by broth microdilution assay; type: functional; conditions: time 48 hrs
[29] = test system: Escherichia coli; test: Bactericidal activity against Escherichia coli ATCC BAA-196 incubated for 24 hrs followed by transferring to freshly prepared broth medium and measured after 24 hrs by broth microdilution assay; type: functional; conditions: time 48 hrs
[30] = test system: Pseudomonas aeruginosa; test: Bactericidal activity against Pseudomonas aeruginosa ATCC BAA-2111 incubated for 24 hrs followed by transferring to freshly prepared broth medium and measured after 24 hrs by broth microdilution assay; type: functional; conditions: time 48 hrs
[31] = test system: Neutrophil; test: Immunomodulatory activity in human neutrophils infected with bacteria assessed as increase in bacterial killing by measuring reduced NBT incubated for 30 mins by NBT dye based spectrophotometry; type: functional; design: concentration or dose not given beside the values; conditions: 0.5 h
[32] = biological target: DNA gyrase (Staphylococcus aureus, UniProt P0A0K8+P20831); test: Inhibition of Staphylococcus aureus DNA gyrase using relaxed pBR322 DNA as substrate incubated for 45 mins by agarose gel electrophoresis method; type: protein-complex assay
Sequence of DNA gyrase (P0A0K8 whole entry): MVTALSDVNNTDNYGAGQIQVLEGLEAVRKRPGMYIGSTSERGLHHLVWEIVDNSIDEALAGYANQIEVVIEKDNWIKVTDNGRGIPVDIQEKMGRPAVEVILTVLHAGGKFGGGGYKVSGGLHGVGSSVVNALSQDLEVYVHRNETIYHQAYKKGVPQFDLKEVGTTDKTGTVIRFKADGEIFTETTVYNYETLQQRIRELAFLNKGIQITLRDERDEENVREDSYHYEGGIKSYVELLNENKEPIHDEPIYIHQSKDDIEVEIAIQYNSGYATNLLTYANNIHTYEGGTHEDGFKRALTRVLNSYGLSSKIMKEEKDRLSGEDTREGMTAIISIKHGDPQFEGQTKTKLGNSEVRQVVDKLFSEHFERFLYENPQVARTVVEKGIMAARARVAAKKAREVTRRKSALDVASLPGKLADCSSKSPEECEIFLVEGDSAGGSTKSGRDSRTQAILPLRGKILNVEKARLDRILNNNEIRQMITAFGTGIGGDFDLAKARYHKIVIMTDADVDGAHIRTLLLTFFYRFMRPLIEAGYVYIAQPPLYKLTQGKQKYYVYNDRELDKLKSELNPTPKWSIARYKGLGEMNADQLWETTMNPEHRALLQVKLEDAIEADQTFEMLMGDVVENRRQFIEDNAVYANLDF
Sequence of DNA gyrase (P20831 whole entry): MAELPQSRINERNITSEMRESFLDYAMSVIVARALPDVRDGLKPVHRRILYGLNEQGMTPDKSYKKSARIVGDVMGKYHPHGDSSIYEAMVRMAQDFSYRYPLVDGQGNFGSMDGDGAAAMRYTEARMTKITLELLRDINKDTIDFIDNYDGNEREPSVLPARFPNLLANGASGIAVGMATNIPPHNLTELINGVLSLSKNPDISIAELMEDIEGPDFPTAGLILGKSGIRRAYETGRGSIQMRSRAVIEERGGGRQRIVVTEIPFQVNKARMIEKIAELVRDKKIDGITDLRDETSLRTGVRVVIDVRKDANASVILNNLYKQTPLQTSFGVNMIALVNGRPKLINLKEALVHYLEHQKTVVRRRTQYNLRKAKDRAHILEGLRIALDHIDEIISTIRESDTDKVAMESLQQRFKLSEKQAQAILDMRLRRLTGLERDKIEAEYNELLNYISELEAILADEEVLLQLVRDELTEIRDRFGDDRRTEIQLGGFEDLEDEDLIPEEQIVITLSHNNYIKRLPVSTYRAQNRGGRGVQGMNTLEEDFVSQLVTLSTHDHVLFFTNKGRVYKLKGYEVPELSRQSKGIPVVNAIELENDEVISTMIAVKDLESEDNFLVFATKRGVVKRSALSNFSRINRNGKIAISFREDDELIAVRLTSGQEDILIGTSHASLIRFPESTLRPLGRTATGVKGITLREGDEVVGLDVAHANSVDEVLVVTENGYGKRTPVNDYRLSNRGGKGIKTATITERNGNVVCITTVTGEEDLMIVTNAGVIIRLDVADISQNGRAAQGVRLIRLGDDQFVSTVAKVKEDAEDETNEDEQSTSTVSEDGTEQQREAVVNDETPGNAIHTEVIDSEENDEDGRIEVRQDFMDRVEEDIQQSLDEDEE

| SMILES | zone of inhibition at 500 µg/mL [1] [mm] | zone of inhibition at 500 µg/mL [2] [mm] | zone of inhibition at 500 µg/mL [3] [mm] | zone of inhibition at 500 µg/mL [4] [mm] | zone of inhibition at 500 µg/mL [5] [mm] | zone of inhibition at 500 µg/mL [6] [mm] | MIC [7] [µg/mL] | MIC [8] [µg/mL] | MIC [9] [µg/mL] | MIC [10] [µg/mL] | MIC [11] [µg/mL] | MIC [12] [µg/mL] | MBC [13] [µg/mL] | MBC [14] [µg/mL] | MBC [15] [µg/mL] | MBC [16] [µg/mL] | MFC [17] [µg/mL] | MFC [18] [µg/mL] | zone of inhibition at 500 µg/mL [19] [mm] | zone of inhibition at 500 µg/mL [20] [mm] | further results |
| --- | --- | --- | --- | --- | --- | --- | --- | --- | --- | --- | --- | --- | --- | --- | --- | --- | --- | --- | --- | --- | --- |
| CCOC(=O)C1=C(c2ccccc2)OC(N)=C(C#N)C12C(=O)Nc1ccc(S(=O)(=O)N3CCCCC3)cc12 (stereo unspecified) | 24 | 21 | 23 | 24 | 22 | 20 | 15.6 (≈ 29.2 µM) | 71.1 (≈ 133 µM) | 15.6 (≈ 29.2 µM) | 15.6 (≈ 29.2 µM) | 12.5 (≈ 23.4 µM) | 62.5 (≈ 117 µM) | 31.2 (≈ 58.4 µM) | 99.5 (≈ 186 µM) | 21.9 (≈ 40.9 µM) | 20.3 (≈ 38 µM) | 25 (≈ 46.8 µM) | 125 (≈ 234 µM) | 24 | 25 | zone of inhibition at 500 µg/mL [21]: 26 mm; zone of inhibition at 500 µg/mL [22]: 24 mm; MIC [23]: 1.95 µg/mL (≈ 3.65 µM); MIC [24]: 1.95 µg/mL (≈ 3.65 µM); MIC [25]: 1.57 µg/mL (≈ 2.94 µM); MIC [26]: 3.9 µg/mL (≈ 7.3 µM); MBC [27]: 2.92 µg/mL (≈ 5.46 µM); MBC [28]: 3.31 µg/mL (≈ 6.19 µM); MBC [29]: 2.35 µg/mL (≈ 4.4 µM); MBC [30]: 6.24 µg/mL (≈ 11.7 µM); Activity [31]: 95.4%; IC50 [32]: 19.8 µM |
| CCOC(=O)C1=C(N)OC(c2ccccc2)=C(C(=O)OCC)C12C(=O)Nc1ccc(S(=O)(=O)N3CCCCC3)cc12 (stereo unspecified) | 22 | 21 | 23 | 21 | 21 | 17 | 7.81 (≈ 13.4 µM) | 88.3 (≈ 152 µM) | 8.88 (≈ 15.3 µM) | 15.6 (≈ 26.9 µM) | 15.6 (≈ 26.9 µM) | 71.8 (≈ 123 µM) | 15.6 (≈ 26.9 µM) | 150 (≈ 258 µM) | 11.5 (≈ 19.8 µM) | 21.9 (≈ 37.6 µM) | 21.9 (≈ 37.6 µM) | 115 (≈ 197 µM) | 22 | 22 | zone of inhibition at 500 µg/mL [21]: 23 mm; zone of inhibition at 500 µg/mL [22]: 22 mm; MIC [23]: 6.25 µg/mL (≈ 10.7 µM); MIC [24]: 6.25 µg/mL (≈ 10.7 µM); MIC [25]: 4.44 µg/mL (≈ 7.63 µM); MIC [26]: 5.2 µg/mL (≈ 8.94 µM); MBC [27]: 10 µg/mL (≈ 17.2 µM); MBC [28]: 9.37 µg/mL (≈ 16.1 µM); MBC [29]: 5.32 µg/mL (≈ 9.15 µM); MBC [30]: 8.84 µg/mL (≈ 15.2 µM); Activity [31]: 139.3%; IC50 [32]: 23.2 µM |
| CCOC(=O)/C(C#N)=C1\C(=O)Nc2ccc(S(=O)(=O)N3CCOCC3)cc21 | 24 | 25 | 26 | 24 | 23 | 18 | 3.9 (≈ 9.96 µM) | 15.6 (≈ 39.9 µM) | 3.9 (≈ 9.96 µM) | 31.2 (≈ 79.8 µM) | 6.25 (≈ 16 µM) | 88.3 (≈ 226 µM) | 7.8 (≈ 19.9 µM) | 21.9 (≈ 55.9 µM) | 7.8 (≈ 19.9 µM) | 62.5 (≈ 160 µM) | 10.6 (≈ 27.1 µM) | 124 (≈ 316 µM) | 25 | 25 | zone of inhibition at 500 µg/mL [21]: 26 mm; zone of inhibition at 500 µg/mL [22]: 24 mm; MIC [23]: 1.95 µg/mL (≈ 4.98 µM); MIC [24]: 1.95 µg/mL (≈ 4.98 µM); MIC [25]: 1.57 µg/mL (≈ 4.01 µM); MIC [26]: 3.9 µg/mL (≈ 9.96 µM); MBC [27]: 3.12 µg/mL (≈ 7.97 µM); MBC [28]: 3.7 µg/mL (≈ 9.45 µM); MBC [29]: 3.14 µg/mL (≈ 8.02 µM); MBC [30]: 7.8 µg/mL (≈ 19.9 µM); Activity [31]: 152.3%; IC50 [32]: 27 µM |
